Data on five compounds can be found in BindingDB's records for doi:10.1021/jm000508c (Ontogen, 2001).

Test [1] in a line: Inhibitory activity against P-selectin using cell-cell assay.
A short description of test [2]: Inhibitory activity against Selectin E using cell-cell assay.

Turning to `CCCCCCCCCCCCNC(=O)C=Cc1ccc(-c2[nH]c(-c3ccc(-c4cc(C(=O)O)on4)cc3)nc2-c2ccc(C=CC(=O)O)cc2)cc1` [3-(4-{4-[4-(2-Carboxy-vinyl)-phenyl]-5-[4-(2-dodecylcarbamoyl-vinyl)-phenyl]-1H-imidazol-2-yl}-phenyl)-isoxazole-5-carboxylic acid], in test [1], the IC50 was found to be 500 µM.

On to `CCCCCCCCCCCCCCCCNC(=O)C=Cc1ccc(-c2[nH]c(-c3ccc(C4=NOC(C(=O)O)C4)cc3)nc2-c2ccc(C=CC(=O)O)cc2)cc1` (stereo not drawn) [3-(4-{4-[4-(2-Carboxy-vinyl)-phenyl]-5-[4-(2-hexadecylcarbamoyl-vinyl)-phenyl]-1H-imidazol-2-yl}-phenyl)-4,5-dihydro-isoxazole-5-carboxylic acid], for which the IC50 in test [2] came to 30 µM; in test [1], 14 µM.

As to `CCCCCCCCCCCCCCCCNC(=O)C=Cc1ccc(-c2[nH]c(-c3ccc(-c4cc(C(=O)O)on4)cc3)nc2-c2ccc(C=CC(=O)O)cc2)cc1` [3-(4-{4-[4-(2-Carboxy-vinyl)-phenyl]-5-[4-(2-hexadecylcarbamoyl-vinyl)-phenyl]-1H-imidazol-2-yl}-phenyl)-isoxazole-5-carboxylic acid], the IC50 in test [2] is 20 µM; in test [1], 8 µM.

`CCCCCCCCCCCCCCCCNC(=O)C=Cc1ccc(-c2[nH]cnc2-c2ccc(C=CC(=O)O)cc2)cc1` [3-(4-{5-[4-(2-Hexadecylcarbamoyl-vinyl)-phenyl]-1H-imidazol-4-yl}-phenyl)-acrylic acid]: the IC50 in test [2] was greater than 100 µM; in test [1] it was 98 µM.

`O=C(O)C=Cc1ccc(-c2nc(-c3ccc(C4=NOC(C(=O)O)C4)cc3)c(-c3ccc(C=CC(=O)NCCCc4ccccc4)cc3)[nH]2)cc1` (stereo not drawn) [3-[4-(2-[4-(2-Carboxy-vinyl)-phenyl]-5-{4-[2-(3-phenyl-propylcarbamoyl)-vinyl]-phenyl}-1H-imidazol-4-yl)-phenyl]-4,5-dihydro-isoxazole-5-carboxylic acid] gave an IC50 in test [1] of 123 µM.

One may read the IC50 as the midpoint of a concentration-inhibition curve. Higher therefore signals lower potency.
